Results as given in ChEMBL document CHEMBL5608200, “Design, synthesis, and evaluation of antitumor activity of 2-arylmethoxy-4-(2-fluoromethyl-biphenyl-3-ylmethoxy) benzylamine derivatives as PD-1/PD-l1 inhibitors” (Eur J Med Chem, 2024).

How the values were obtained:
[1] = target: Programmed cell death protein 1/Programmed cell death 1 ligand 1 (Homo sapiens, UniProt Q9NZQ7); assay: Inhibition of human PD-1 to PD-L1 protein-protein interaction by homogeneous-time resolved fluorescence assay; type: protein-complex assay
[2] = Apparent volume of distribution in Sprague-Dawley rat at 50 mg/kg, IG measured upto 48 hrs by LC-MS/MS analysis; type: ADME, organism-based; conditions: in vivo, po
[3] = Tmax in Sprague-Dawley rat at 50 mg/kg, IG measured upto 48 hrs by LC-MS/MS analysis; type: ADME, organism-based; conditions: in vivo, po
[4] = AUC(0 to infinity) in Sprague-Dawley rat at 50 mg/kg, IG measured upto 48 hrs by LC-MS/MS analysis; type: ADME, organism-based; conditions: in vivo, po
[5] = Half-life in Sprague-Dawley rat at 50 mg/kg, IG measured upto 48 hrs by LC-MS/MS analysis; type: ADME, organism-based; conditions: in vivo, po
[6] = Half-life in Sprague-Dawley rat at 10 mg/kg, iv measured upto 48 hrs by LC-MS/MS analysis; type: ADME, organism-based; conditions: in vivo
[7] = AUC(0 to infinity) in Sprague-Dawley rat at 10 mg/kg, iv measured upto 48 hrs by LC-MS/MS analysis; type: ADME, organism-based; conditions: in vivo
[8] = Apparent volume of distribution in Sprague-Dawley rat at 10 mg/kg, iv measured upto 48 hrs by LC-MS/MS analysis; type: ADME, organism-based; conditions: in vivo
[9] = AUC(0 to t) in Sprague-Dawley rat at 50 mg/kg, IG measured upto 48 hrs by LC-MS/MS analysis; type: ADME, organism-based; conditions: in vivo, po
[10] = Clearance in Sprague-Dawley rat at 50 mg/kg, IG measured upto 48 hrs by LC-MS/MS analysis; type: ADME, organism-based; conditions: in vivo, po
[11] = AUC(0 to t) in Sprague-Dawley rat at 10 mg/kg, iv measured upto 48 hrs by LC-MS/MS analysis; type: ADME, organism-based; conditions: in vivo
MC-38 = assay: Antitumor activity against mouse MC38 cells expressing hPD-L1 implanted in PD-1/PD-L1 humanized C57BL/6 mouse assessed as tumor growth inhibition at 50 mg/kg, IG; type: functional; conditions: MC-38, po, read-out: TGI
[12] = Tmax in Sprague-Dawley rat at 10 mg/kg, iv measured upto 48 hrs by LC-MS/MS analysis; type: ADME, organism-based; conditions: in vivo
[13] = target: Programmed cell death protein 1/Programmed cell death 1 ligand 1 (Homo sapiens) (UniProt Q15116+Q9NZQ7); conditions: HEK293T, dose 100.0 nM, time 30.0 min
[14] = Cytotoxicity against human PBMCs at 1 to 4 uM by CCK-8 assay; type: toxicity, cell-based; conditions: pbmc, dose 1-4 µM
[15] = Clearance in Sprague-Dawley rat at 10 mg/kg, iv measured upto 48 hrs by LC-MS/MS analysis; type: ADME, organism-based; conditions: in vivo
[16] = Oral bioavilability in Sprague-Dawley rat at 50 mg/kg measured upto 48 hrs by LC-MS/MS analysis; type: ADME, organism-based; conditions: in vivo
[17] = Cmax in Sprague-Dawley rat at 10 mg/kg, iv measured upto 48 hrs by LC-MS/MS analysis; type: ADME, organism-based; conditions: in vivo
[18] = Cmax in Sprague-Dawley rat at 50 mg/kg, IG measured upto 48 hrs by LC-MS/MS analysis; type: ADME, organism-based; conditions: in vivo, po

Chain of Programmed cell death protein 1/Programmed cell death 1 ligand 1 (Q15116 whole entry): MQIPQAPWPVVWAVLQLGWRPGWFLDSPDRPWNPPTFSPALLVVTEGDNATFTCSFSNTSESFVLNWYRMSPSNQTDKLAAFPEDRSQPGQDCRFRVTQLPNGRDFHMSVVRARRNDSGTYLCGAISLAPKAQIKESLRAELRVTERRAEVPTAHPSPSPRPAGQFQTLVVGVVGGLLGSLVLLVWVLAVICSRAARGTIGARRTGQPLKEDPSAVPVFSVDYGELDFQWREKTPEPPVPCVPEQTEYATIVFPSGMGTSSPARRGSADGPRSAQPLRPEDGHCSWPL
Chain of Programmed cell death protein 1/Programmed cell death 1 ligand 1 (Q9NZQ7 whole entry): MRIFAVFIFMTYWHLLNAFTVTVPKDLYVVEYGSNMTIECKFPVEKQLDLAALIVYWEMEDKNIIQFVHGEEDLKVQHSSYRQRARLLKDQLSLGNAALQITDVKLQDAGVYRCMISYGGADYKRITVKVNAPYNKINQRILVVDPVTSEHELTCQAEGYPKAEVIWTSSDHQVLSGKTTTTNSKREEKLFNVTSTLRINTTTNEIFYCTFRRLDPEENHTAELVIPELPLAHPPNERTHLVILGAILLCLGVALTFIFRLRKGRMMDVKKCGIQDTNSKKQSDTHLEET

SMILES | IC50 [1] | also measured
N#Cc1cncc(COc2cc(OCc3cccc(-c4ccccc4F)c3CF)ccc2CNCCO)c1 | 24.9 nM | –
COc1nc(OCc2cccc(-c3ccccc3)c2C)ccc1CNCCNC(C)=O | – | Vz [2]: 56.85 L/kg; Tmax [3]: 2.1 h; AUC(0-inf) [4]: 16900 ng·h/mL; t1/2 [5]: 3.13 h; t1/2 [6]: 1.94 h; AUC(0-inf) [7]: 8710 ng·h/mL; Vz [8]: 12.46 L/kg; AUC(0-t) at 48 h [9]: 16800 ng·h/mL; CL [10]: 49.2 mL/min/kg; AUC(0-t) at 48 h [11]: 8600 ng·h/mL; inhibition in vivo at 50 mg/kg (MC-38): 44.6%; Tmax [12]: 7.2 min; inhibition [13]: 34.6%; Activity [14]: Non-Toxic; CL [15]: 19.2 mL/min/kg; bioavailability [16]: 39.1%; Cmax [17]: 3350 ng/mL; Cmax [18]: 5730 ng/mL
N#Cc1cncc(COc2cc(OCc3cccc(-c4ccc5c(c4)OCCO5)c3CF)ccc2CNCC(=O)O)c1 | 100 nM | –
CC(=O)NCCNCc1ccc(OCc2cccc(-c3cc(F)ccc3F)c2CF)cc1OCc1cncc(C#N)c1 | 100 nM | –
N#Cc1cncc(COc2cc(OCc3cccc(-c4ccccc4F)c3C(F)F)ccc2CNCC(=O)O)c1 | 154 nM | –
N#Cc1cncc(COc2cc(OCc3cccc(-c4ccccc4)c3C(F)(F)F)ccc2CN[C@@H](CO)C(=O)O)c1 | 58.6 nM | –
N#Cc1cncc(COc2cc(OCc3cccc(-c4ccc5c(c4)OCCO5)c3CF)ccc2CN2CCCCC2C(=O)O)c1 (stereo not drawn) | 100 nM | –
N#Cc1cncc(COc2cc(OCc3cccc(-c4cc(F)ccc4F)c3CF)ccc2CNCCO)c1 | 42 nM | –
N#Cc1cccc(COc2cc(OCc3cccc(-c4ccccc4F)c3C(F)F)ccc2CNCCO)c1 | 100 nM | –
CN(C)CCNCc1ccc(OCc2cccc(-c3ccc4c(c3)OCCO4)c2C(F)F)cc1OCc1cccnc1 | 100 nM | –
N#Cc1cncc(COc2cc(OCc3cccc(-c4ccccc4F)c3CF)ccc2CN2CCCCC2C(=O)O)c1 (stereo not drawn) | 27 nM | –
N#Cc1cncc(COc2cc(OCc3cccc(-c4ccccc4F)c3CF)ccc2CNCC(=O)O)c1 | 28.4 nM | –
N#Cc1cncc(COc2cc(OCc3cccc(-c4ccc5c(c4)OCCO5)c3CF)ccc2CN[C@@H](CO)C(=O)O)c1 | 19.7 nM | inhibition [13]: 22%
N#Cc1cncc(COc2cc(OCc3cccc(-c4ccc5c(c4)OCCO5)c3C(F)F)ccc2CN2CCC[C@H]2C(=O)O)c1 | 19.4 nM | inhibition [13]: 21.7%
CC(=O)NCCNCc1ccc(OCc2cccc(-c3ccccc3F)c2C(F)F)cc1OCc1cncc(C#N)c1 | 100 nM | –
N#Cc1cccc(COc2cc(OCc3cccc(-c4ccccc4F)c3CF)ccc2CNCCO)c1 | 100 nM | –
N#Cc1cncc(COc2cc(OCc3cccc(-c4ccccc4F)c3CF)ccc2CN[C@@H](CO)C(=O)O)c1 | 12.7 nM | –
CC(=O)NCCNCc1ccc(OCc2cccc(-c3ccccc3F)c2CF)cc1OCc1cccc(C#N)c1 | 100 nM | –
N#Cc1cncc(COc2cc(OCc3cccc(-c4ccc5c(c4)OCCO5)c3CF)ccc2CN2CCC(C(=O)O)C2)c1 (stereo not drawn) | 14.9 nM | inhibition [13]: 18.4%

SMILES | IC50 [1] | also measured
N#Cc1cncc(COc2cc(OCc3cccc(-c4ccc5c(c4)OCCO5)c3CF)ccc2CNCCO)c1 | 11.9 nM | inhibition [13]: 17.3%
CC(=O)NCCNCc1ccc(OCc2cccc(-c3ccc4c(c3)OCCO4)c2C(F)F)cc1OCc1cncc(C#N)c1 | 17.2 nM | inhibition [13]: 18.4%
N#Cc1cncc(COc2cc(OCc3cccc(-c4ccc5c(c4)OCCO5)c3C(F)F)ccc2CNCC(O)CO)c1 (stereo not drawn) | 9.5 nM | inhibition [13]: 17%
N#Cc1cccc(COc2cc(OCc3cccc(-c4ccccc4F)c3CF)ccc2CN2CCC[C@H]2C(=O)O)c1 | 10 nM | –
N#Cc1cncc(COc2cc(OCc3cccc(-c4ccccc4F)c3C(F)F)ccc2CN[C@@H](CO)C(=O)O)c1 | 16.9 nM | –
N#Cc1cncc(COc2cc(OCc3cccc(-c4ccccc4F)c3CF)ccc2CN[C@H](CO)C(=O)O)c1 | 10 nM | –
N#Cc1cncc(COc2cc(OCc3cccc(-c4ccccc4F)c3CF)ccc2CN2CCC(C(=O)O)C2)c1 (stereo not drawn) | 25.2 nM | –
N#Cc1cncc(COc2cc(OCc3cccc(-c4ccccc4F)c3CF)ccc2CN2CC(C(=O)O)C2)c1 | 18.8 nM | inhibition [13]: 20.5%
CC(=O)NCCNCc1ccc(OCc2cccc(-c3ccc4c(c3)OCCO4)c2CF)cc1OCc1cncc(C#N)c1 | 24.9 nM | –
N#Cc1cncc(COc2cc(OCc3cccc(-c4ccccc4F)c3CF)ccc2CN2CCC(O)C2)c1 (stereo not drawn) | 55.8 nM | –
N#Cc1cncc(COc2cc(OCc3cccc(-c4ccccc4F)c3C(F)F)ccc2CN2CCC[C@H]2C(=O)O)c1 | 120 nM | –
N#Cc1cccc(COc2cc(OCc3cccc(-c4ccccc4F)c3C(F)F)ccc2CN[C@@H](CO)C(=O)O)c1 | 100 nM | –
OCC(O)CNCc1ccc(OCc2cccc(-c3ccc4c(c3)OCCO4)c2C(F)F)cc1OCc1cccnc1 (stereo not drawn) | 67.5 nM | –
N#Cc1cncc(COc2cc(OCc3cccc(-c4ccccc4)c3C(F)(F)F)ccc2CNCCO)c1 | 93.8 nM | –
CC(=O)NCCNCc1ccc(OCc2cccc(-c3ccccc3F)c2CF)cc1OCc1cncc(C#N)c1 | 31.4 nM | –
N#Cc1cncc(COc2cc(OCc3cccc(-c4cc(F)ccc4F)c3CF)ccc2CN[C@@H](CO)C(=O)O)c1 | 20.9 nM | –
CN(C)CCNCc1ccc(OCc2cccc(-c3ccc4c(c3)OCCO4)c2C(F)F)cc1OCc1cncc(C#N)c1 | 29.5 nM | –
N#Cc1cncc(COc2cc(OCc3cccc(-c4ccccc4F)c3C(F)F)ccc2CNCCO)c1 | 41.9 nM | –
N#Cc1cncc(COc2cc(OCc3cccc(-c4ccccc4F)c3CF)ccc2CN2CCC[C@H]2C(=O)O)c1 | 6.9 nM | inhibition [13]: 15.4%
